“And” between values parts separate entries of the source, which are not always exact repeats. Identical values can stand only once. Like-named read-outs stand apart in the source and are kept apart here.
How the values were obtained:
α-HL monomer = α-HL monomer (Staphylococcus aureus, UniProt P09616)
α-HL heptamer = α-HL heptamer (Staphylococcus aureus, UniProt P09616)
WT-α-HL pore [1] = biological target: T1, WT-α-HL pore (Staphylococcus aureus, UniProt P09616); assay type: binding
MspA (NNNRRK mutant) = MspA (NNNRRK mutant) (Mycolicibacterium smegmatis, UniProt A0QR29, D117N/D118N/D120N/D145R/D161R/E166K)
WT-Kcv = WT-Kcv (Paramecium bursaria Chlorella virus 1, UniProt Q84568)
WT-α-HL pore [2] = biological target: T1, WT-α-HL pore; conditions: cited from earlier work

WT-Kcv, sequence (Q84568 whole entry, looked up): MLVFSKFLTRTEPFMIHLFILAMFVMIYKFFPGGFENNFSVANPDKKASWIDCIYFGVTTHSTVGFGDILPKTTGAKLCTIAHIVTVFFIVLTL
α-HL heptamer, sequence (P09616 27-319 limits assumed): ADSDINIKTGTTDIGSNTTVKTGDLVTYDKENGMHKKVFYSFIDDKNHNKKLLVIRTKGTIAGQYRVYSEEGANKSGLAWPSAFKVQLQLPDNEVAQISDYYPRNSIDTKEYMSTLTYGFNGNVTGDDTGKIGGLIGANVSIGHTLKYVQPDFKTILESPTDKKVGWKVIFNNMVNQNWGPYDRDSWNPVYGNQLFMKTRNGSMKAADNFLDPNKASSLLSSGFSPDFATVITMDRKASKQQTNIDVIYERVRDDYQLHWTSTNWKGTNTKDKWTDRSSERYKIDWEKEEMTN
α-HL monomer, sequence (P09616 27-319 limits assumed): as above
T1 sequence (P09616 27-319 limits assumed): as above
MspA (NNNRRK mutant), sequence (A0QR29 28-211 D117N/D118N/D120N/D145R/D161R/E166K limits assumed): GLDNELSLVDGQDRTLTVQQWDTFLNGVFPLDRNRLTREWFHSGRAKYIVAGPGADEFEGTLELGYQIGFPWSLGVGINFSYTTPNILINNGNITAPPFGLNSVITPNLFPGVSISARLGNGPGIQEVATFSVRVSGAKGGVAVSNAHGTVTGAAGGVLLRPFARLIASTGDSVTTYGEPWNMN

## C6F13C2H4—S-poly[tris(hydroxymethyl)aminomethane] [F6TAC]
α-HL monomer
  Initial rate of release of dye: 6.5 % min^−1
  Lag time before initiation of release: 7.5 min
α-HL heptamer
  Initial rate of release of dye: 16 % min^−1
  Lag time before initiation of release: 4.8 min

## Fluorinated fos-choline [F6FC]
WT-α-HL pore [1]; pH 7.5
  gα-HL, unitary conductance in the absence of βCD: 650 ± 3 pS and 721 ± 4 pS
α-HL monomer
  Percent release of dye at end point: 0.2% and 0.3%
α-HL heptamer
  Lag time before initiation of release: 2.8 min and 4.3 min
MspA (NNNRRK mutant)
  blockades or gating changes of MspA pores already inserted: did not cause blockades or changes in the gating
  insertion of MspA pores into planar lipid bilayer: No further insertion events occur
WT-Kcv
  blockades or gating changes of Kcv channels already inserted: did not cause blockades or changes in the gating
  insertion of Kcv channels into planar lipid bilayer: No openings are seen
  single-channel IV curve of Kcv: unchanged

## Fluorinated octyl maltoside [F6OM]
α-HL monomer
  Initial rate of release of dye: 4 % min^−1
  Lag time before initiation of release: 4.4 min
α-HL heptamer
  Initial rate of release of dye: 16 % min^−1
  Lag time before initiation of release: 1.8 min

## β-cyclodextrin [βCD]
WT-α-HL pore [1]
  Kd: 5.4 mM and 9.6 mM
  gα-HL·βCD, unitary conductance with βCD bound: 257 ± 3 pS and 232 ± 4 pS
  koff: 1.7 ± 0.1 × 10^3 s^−1 and 2.4 ± 0.3 × 10^3 s^−1
  kon: 3.1 ± 0.1 × 10^5 M^−1s^−1 and 2.5 ± 0.4 × 10^5 M^−1s^−1
WT-α-HL pore [2]
  gα-HL·βCD, unitary conductance with βCD bound: 253 ± 4 pS and 240 ± 3 pS
  koff: 2.1 ± 0.2 × 10^3 s^−1 and 1.3 ± 0.1 × 10^3 s^−1
  kon: 2.8 ± 0.2 × 10^5 M^−1s^−1 and 4.0 ± 0.3 × 10^5 M^−1s^−1
